The values that follow come from ChEMBL document CHEMBL4602732, “Optimizing Pyrazolopyrimidine Inhibitors of Calcium Dependent Protein Kinase 1 for Treatment of Acute and Chronic Toxoplasmosis” (J Med Chem, 2020).

For orientation: efflux ratio means the permeability from basolateral to apical divided by that in the opposite direction, in the common usage.

Active and inactive are the calls of the source. The calls are words filed in the database; no cut-off is given here. Bounds are passed on as bounds.

One data set has as its system MDR1. Description: Efflux ratio of apparent permeability across basolateral to apical side over apical to basolateral side in MDCK2-MDR1 cells at 2 uM measured after 150 mins by LC-MS/MS analysis. Particulars: dog, MDCK-MDR1. The format is ADME, cell-based, Canis lupus familiaris.
For data set [1], the system named is Src (human) versus Toxoplasma gondii CDPK1. Description: Selectivity ratio of IC50 for inhibition of human Src expressed in Escherichia coli BL21 to IC50 for inhibition of Toxoplasma gondii full-length wild-type C-terminal His-tagged CDPK1 expressed in Escherichia coli BL21(DE3)V2RpAcYc-LIC+LamP. It counts as toxicity. Particulars: read-out: Ratio IC50.
The subject of data set [2] is Toxoplasma gondii. Description: Protection against reactivation of type 2 Toxoplasma gondii ME49 infection in sulfadiazin-treated Ifngr1-/- CD1 mouse assessed as increase in mouse survival at 60 to 120 mg/kg, po administered twice daily via gavage for 8 days measured up to 30 days. It counts as functional, organism-based.
Data set [3] relates to Toxoplasma gondii. Description: Protection against reactivation of type 2 Toxoplasma gondii ME49 infection in sulfadiazin-treated Ifngr1-/- CD1 mouse assessed as increase in mouse survival at 60 mg/kg, po administered twice daily via gavage for 21 days measured up to 30 days. The format is functional, organism-based.

As to `Nc1ncnc2c1c(Oc1cc(C(F)(F)F)ccn1)nn2C1CC1`, the efflux ratio at […], 2 µM in the data set on MDR1 stood at 0.64. The selectivity ratio in data set [1] is above 1000. The outcome in the data set with Toxoplasma gondii [2] and in the data set on Toxoplasma gondii [3] was Active.
